Measurements published in a melting point compilation (Tetko et al.; mined from patent text by program, amines drawn as free bases though some values may be those of a salt).

| melting point [°C] | Structure (SMILES) |
| --- | --- |
| 87 to 92 | CCCCCCCCCCCCSc1n[nH]c(-c2ccc(C(C)(C)C)cc2)n1 |
| 196 to 200 | CC(=O)NC(C)C(=O)Nc1ccc2[nH]cc(C(=O)O)c(=O)c2c1 (stereo unspecified) |
| 270 to 272 | CC(C)(O)Cn1c(CON2C(=O)c3ccccc3C2=O)nc2c(N)nc3ccccc3c21 |
| 235 to 242 | Cc1cccc(C)c1N1CCN(CCNc2cnn(C)c(=O)c2Cl)CC1 |
| 130 | CC(=O)Nc1ccccc1C(=O)C=Cc1ccncc1 |
| 201 to 203 | O=c1nc(N2CCN(c3cccc(C(F)(F)F)c3)CC2)sc2c([N+](=O)[O-])cc(C(F)(F)F)cc12 |
| 111 to 113 | CC(C)(C)c1ccc(C(=O)Nc2ccc(N)cc2)cc1 |
| 87 to 88.5 | Cc1c(-c2ccc(Cl)cc2)nn(C)c1C(F)(F)F |
| 206 to 207 | O=[N+]([O-])c1cccc2c3c(cc([N+](=O)[O-])c12)NCC3CCl (stereo unspecified) |
| 158 | COC(=O)c1ccc(CNc2ccc(C)c(Nc3nccc(-c4cccnc4)n3)c2)cc1 |
| 201 to 203 | COc1ccc(-n2c(=O)cc(C(F)(F)F)n(C)c2=O)c2c1CC(C)(C)O2 |
| 97 to 100 | COC(=O)c1ccccc1C(=O)Nc1cc(C(F)(F)C(F)(F)F)on1 |
| 99 to 100 | O=C1CCCc2cc(-c3ccccc3)ccc21 |
| 124 to 126 | CCN(C(=O)OC(C)(C)C)C1CC=C(c2c[nH]c3ccc(NC(=N)c4cccs4)cc23)CC1 (stereo unspecified) |
| 94 to 95 | COC(=O)CCC(=O)c1ccc(-c2ccc(Br)cc2F)cc1 |
| > 300 | CN(C(=O)OC(C)(C)C)[C@H]1CCN(C(=O)c2ccc(-c3[nH]nc4c3C(=O)c3c(NC(=O)NN5CCOCC5)cccc3-4)s2)C1 |
| 162 to 168 | N#Cc1ccc(-c2ccc(I)cc2)cc1 |
| 222 to 224 | CN(C(=O)CCCOc1ccc2[nH]c(=O)oc(=O)c2c1)C1CCCCC1 |
| 75 to 77 | COc1cccc(CN2CC=C(/C=C/c3ccccc3)CC2)c1 |
| 102 to 106 | Cc1ccc(S(=O)(=O)c2ccc(N3CCNCC3)cc2N)cc1 |
| 82 to 84 | Cn1c(COc2ccc(CC3SC(=O)N(C(c4ccccc4)(c4ccccc4)c4ccccc4)C3=O)cc2)nc2cc(Cl)cnc21 (stereo unspecified) |
| 227 | Cc1cc(-c2cc(C(F)(F)F)n3ncc(-c4ccncc4)c3n2)ccc1C(F)(F)F |
| 112 to 113 | Cc1ccc2cccc(OCC(=O)c3ccc(Cl)cc3)c2n1 |
| 103 to 104 | O=C1CCCc2c1ccc(OCc1ccccc1)c2CBr |
| 64 | CCOC(=O)CC(=O)c1ccc(C#N)cc1 |

| melting point [°C] | Structure (SMILES) |
| --- | --- |
| 80 to 82 | CCOc1cc(=O)n(C)c2ccccc12 |
| 208 to 212 | COc1ccccc1C1Cc2c(ccn2C)C2C(=O)NC(=O)C12 (stereo unspecified) |
| 114 to 115 | CC(C)CCCC(C)NC(=O)Oc1ccc2oc3ccccc3c2c1 (stereo unspecified) |
| > 300 | COc1cc2nc(-c3cc(C)c(OCCO)c(C)c3)[nH]c(=O)c2cc1OC |
| 160 to 162 | COc1ccc(CC2CCC3NCC(CO)CC3C2)cc1 (stereo unspecified) |
| 253 | CC(C)N1CCN(c2ccc(-c3[nH]nc4c3C(=O)c3c(NC(=O)NN5CCOCC5)cccc3-4)cc2)CC1 |
| > 260 | CN(c1ccc(O)cc1)c1nc2ccccc2[nH]1 |
| 147 to 149 | O=S(c1ccccc1)c1ccc2c(c1)C(O)C(Br)CCO2 (stereo unspecified) |
| 171 to 172 | Nc1cc([N+](=O)[O-])cnc1Nc1ccccc1F |
| 226 to 228 | COC(=O)c1ccc(Cn2cc(/C=C/C(=O)N3CCCC3)c3ccc(/C=C/C(=O)N4CCCC4)cc32)c(OC)c1 |
| 122 to 124 | COc1cc2c(C)csc2c(Cl)c1Cl |
| 151 to 152 | CC(C)(C)OC(=O)N1CCN2C(=O)OC(c3ccccc3)(c3ccccc3)C2C1 (stereo unspecified) |
| 106 to 110 | COc1cc2c(cc1OC)N(C(=O)OCc1ccccc1)C(C)C(=CO)C2=O (stereo unspecified) |
| 254 to 256 | Cc1c(Cl)nc(=O)n(C)c1N |
| 117 to 118 | CCOC(=O)N1CCC(Oc2ccccc2)(c2ccccc2)CC1 |
| 116 to 118 | COC(=O)C(OC)C(=O)Nc1cc(Cl)cc(Cl)c1 (stereo unspecified) |
| 142 to 144 | CCCC(=O)c1cnc2ccc(COC(=O)c3ccccc3)cc2c1Nc1ccccc1C |
| 140 | CN(C)C(=O)Nc1scc(C(C)(C)C)c1C#N |
| 109 to 111 | CCOC(=O)OC1=C(c2cc(C)ccc2C)C(=O)N(OCOC)C12CCN(OC)CC2 |
| 138 | CC(CNS(=O)(=O)C(C)C)c1ccc(NC(=O)CCl)cc1 (stereo unspecified) |
| 147 to 150 | N#Cc1c(Cl)c(Cl)c(Oc2ccccc2)c(Cl)c1C#N |
| 89 to 90 | CCN(CC)c1ccc(/C=C(\C)c2ccc3c(c2)C(C)(C)CCC3(C)C)cc1 |
| 132 to 135 | COc1ccccc1NC(=O)Nc1nc(Nc2ccccc2-c2ccccc2)nc(N(CCC(=O)O)Cc2cc(C(F)(F)F)cc(C(F)(F)F)c2)n1 |
| 226 to 227 | CCOC(=O)c1c(Cn2cnnc2)nc2cc(OC)c(OC)cc2c1-c1ccc(OC)c(OC)c1 |
| 42 to 44 | CCCCCCCCCCOc1ccc(CC(=O)OC)cc1 |

| melting point [°C] | Structure (SMILES) |
| --- | --- |
| 158 to 159 | O=C(O)c1ccc(I)cc1F |
| 146 to 147 | COc1cccc(Cc2cc3cccc(-c4cccc(C(=O)NC5CCOCC5)c4)c3o2)c1 |
| 172 to 174 | CCSCc1c(S(C)(=O)=O)ccc(C(=O)O)c1Cl |
| 136 | O=C(NC/C=C/c1ccccc1)c1ccc(OC(F)(F)F)cc1 |
| 108 to 110 | NC(=O)c1cscc1Br |
| 123 to 125 | COC(O)c1ccc2c(c1)C(C(Cl)(Cl)Cl)OC(C(Cl)(Cl)Cl)O2 (stereo unspecified) |
| 178 to 179 | CCc1ccc2oc(-c3ccc(C=C4C(=O)C5(C)CCC4C5(C)C)cc3)nc2c1 (stereo unspecified) |
| 160 to 162 | CN(C)c1ccc2c(c1)C(=O)C(n1ccnc1)CC2 (stereo unspecified) |
| 217 to 219 | O=C(Nc1cnc(-c2ccccc2)[nH]c1=O)OCc1ccccc1 |
| 111 to 112 | Cc1ccccc1C1(O)c2cc(NC(=O)CC(C)(C)C)c(C)c(C)c2OC1(C)C (stereo unspecified) |
| 184 to 186 | CC(C)(C)CCN[C@@H](CC(=O)O)C(=O)O |
| 171 to 172 | COC(=O)c1ccccc1Nc1cccc(C(C)N(O)C(C)=O)c1Cl (stereo unspecified) |
| 215 to 216 | COCc1ccc2c(c1S(=O)(=O)NC(=O)Nc1nc(C)cc(OC)n1)S(=O)(=O)C(C)C2 (stereo unspecified) |
| 116 to 119 | Cc1cn(C(C)(C)C(=O)N(C)C)nc1-c1cccs1 |
| 163 to 164 | COC(=O)c1ccc(Cc2csc3ccc(NC(=O)OC4CCCC4)cc23)c(OC)c1 |
| 177 | CNc1nn2cc(-c3ccccc3)nc2s1 |
| 121 to 123 | COC(=O)c1nc(C)c(-c2ccncc2)s1 |
| 190 | Oc1ccc(Oc2cc3ccc(Cl)cc3cn2)cc1 |
| 229 to 231 | Cc1cccc(NC(=O)c2ccccc2CN2C(=O)C3(COc4cc5c(cc43)CCO5)c3ccccc32)c1 (stereo unspecified) |
| 177 to 179 | CCn1nc2c(N)nc3c(c2c1CCC1CCCCC1)CCCC3 |
| 180 to 186 | CC(=O)Nc1ccc2c3c(cccc13)CC2 |
| 108 to 110 | CCOC(=O)c1cnoc1-c1ccc(Cl)c(Cl)c1 |
| 162 to 163 | CC(C)(C)C1=CC(=Cc2ccc([N+](=O)[O-])cc2)C=C(C(C)(C)C)C1=O |
| > 350 | Cc1ncc(-c2nc3cc4c(cc3[nH]2)NC(=O)C4(C)C)cn1 |
| 85 to 86 | CCOC(=O)c1ccc(N2CCN(C(=O)CCc3cc(C(C)(C)C)c(O)c(C(C)(C)C)c3)CC2)cc1 |

| melting point [°C] | Structure (SMILES) |
| --- | --- |
| 107 to 108 | Cc1nn(C)c(=O)n1-c1ccccc1COc1ccn(-c2ccc(Cl)cc2)n1 |
| 125 to 126 | COc1cc(C=CC=O)ccc1OCc1nc(-c2ccco2)oc1C |
| 101 to 103 | O=C(O)C=C(C(=O)c1ccc(Cl)c(Cl)c1)c1ccccc1 |
| 251 | COc1ccc2nc(C)c(S(N)(=O)=O)n2n1 |
| 178 to 179 | O=C(Cc1ccc(Cl)cc1)Nc1ccc(O)cc1O |
| 131 to 132 | Cc1ccc(CNC(=O)c2ccc3n2Cc2ccccc2N(C(=O)CSc2ccc(Br)cc2)C3)cc1 |
| 107 to 109 | Oc1cccc2c1ccn2CCOCCC(c1ccccc1)c1ccccc1 |
| 78 to 85 | COc1cc(C2CCN(C3COC3)CC2)ccc1Nc1ncc2ccc(-c3ccccc3OC)n2n1 |
| 138 to 139 | O=c1[nH]c(=O)n(C2CC(OCc3ccccc3)C(CO)O2)cc1F (stereo unspecified) |
| 121 to 125 | CC(Cc1ccc(OCc2ccccc2)cc1)NC(=O)CC(c1ccccc1)c1ccccc1 (stereo unspecified) |
| 137 to 139 | CC(=O)SCCC(=O)N1N=C(c2ccccc2)CC1C(=O)O (stereo unspecified) |
| 173 to 175 | O=C(O)c1cn(-c2cccc(OC(F)(F)F)c2)cn1 |
| 53 to 57 | COc1cc(Cl)cc(CC#N)c1Cl |
| 129 to 130 | O=C(NCCc1ccc(O)c(O)c1)OCc1ccccc1 |
| > 300 | N#Cc1[nH]n(C2CCCC2)c2nc(-c3ccncc3)nc(=O)c1-2 |
| 166 to 169 | O=C(O)C1Oc2cc(Cl)c(S(=O)(=O)c3cc(Cl)cc(Cl)c3)cc2O1 (stereo unspecified) |
| 116 to 118 | CCC(C(C)C)C(OC(C)=O)C(OC(C)=O)C(C)C1CCC2C3CC(=O)C4CC=CCC4(C)C3CCC12C (stereo unspecified) |
| 192 | C=CCNc1nc(N)nc(-c2ccccc2)c1-c1ccc(=O)n(C(C)C)n1 |
| 158 to 160 | CCc1cc(C(=O)c2ccccc2Cl)c(-n2cnnc2CNC(=O)c2ccc(Cl)c(Cl)c2)s1 |
| 83 to 85 | CCOC(=O)Cc1ccc(CCNC(=O)c2cc(C)ccc2OC)cc1 |
| 137 | CCCCCS(=O)(=O)NC(=O)CC(C)c1ccc(OCCOC)cc1Oc1ncc(C(F)(F)F)cc1Cl (stereo unspecified) |
| 221 | Cn1cc(C2=C(c3ccccc3OCC3COC(C)(C)O3)C(=O)NC2=O)c2ccccc21 (racemic) |
| 113 to 115 | c1ccc(COc2cc(OCc3ccccc3)c3ccncc3c2)cc1 |

| Structure (SMILES) | melting point [°C] |
| --- | --- |
| CC(Cc1ccc(O)cc1)NCC(O)c1cccc(Cl)c1 (stereo unspecified) | 50 to 55 |
| O=C(CCS(=O)C(c1ccccc1)c1ccccc1)NO (stereo unspecified) | 159 to 160 |
| OC1C2CCN(CC2)C1CN1CCCCC1 (stereo unspecified) | 130 to 131 |
